Results on six molecules are retold here after patent US12076320B2, “Diarylpyrazole compound, composition comprising same, and use thereof” (Shenzhen TargetRx, Inc., priority 2018, dated 2024).

Usually IC50 stands for the point on the concentration scale where inhibition reaches its midpoint. Lower therefore signals greater potency.

Data set [1] is described as follows: Metabolic stability evaluation in rat liver microsomes. It is filed as in vitro ADME, SD rat. To be noted: rat liver microsomes 0.5 mg/mL, compound 1 μM; for microsomal CLint at 1 μM / half-life at 1 μM: SD, pH 7.4; for microsomal CLint at 1 μM: read-out: RLM CL; for half-life at 1 μM: read-out: RLM T1/2. On the procedure:
(§1) Microsome assay: human liver microsomes (HLM): 0.5 mg/mL, Xenotech; rat liver microsomes (RLM): 0.5 mg/mL, Xenotech; coenzyme (NADPH/NADH): 1 mM, Sigma Life Science; magnesium chloride: 5 mM, 100 mM phosphate buffer (pH 7.4).
(§2) Preparation of stock solutions: Powders of the example compounds and the control compound were accurately weighed and dissolved in DMSO to 5 mM respectively.
(§3) Preparation of phosphate buffer (100 mM, pH 7.4): A pre-prepared 0.5 M potassium dihydrogen phosphate solution (150 mL) was mixed with a pre-prepared 0.5 M dibasic potassium phosphate solution (700 mL). The pH of the mixture was adjusted to 7.4 with a 0.5 M dibasic potassium phosphate solution. The mixture was diluted 5-fold with ultrapure water before use, and magnesium chloride was added to obtain a phosphate buffer (100 mM) containing 100 mM potassium phosphate, 3.3 mM magnesium chloride, pH 7.4.
(§4) A NADPH regeneration system solution (containing 6.5 mM NADP, 16.5 mM G-6-P, 3 U/mL G-6-P D, 3.3 mM magnesium chloride) was prepared and placed on wet ice before use.
(§5) Preparation of stop solution: an acetonitrile solution containing 50 ng/mL propranolol hydrochloride and 200 ng/mL tolbutamide (internal standard). 25057.5 μL of phosphate buffer (pH 7.4) was added into a 50 mL centrifuge tube, to which 812.5 μL of human liver microsomes were then added and mixed well to obtain a liver microsome dilution with a protein concentration of 0.625 mg/mL. 25057.5 μL of phosphate buffer (pH 7.4) was added into a 50 mL centrifuge tube, to which 812.5 μL of SD rat liver microsomes were then added and mixed well to obtain a liver microsome dilution with a protein concentration of 0.625 mg/mL.
(§6) Incubation of the samples: The stock solutions of the respective compounds were respectively diluted to 0.25 mM with an aqueous solution containing 70% acetonitrile, and used as a working solution, ready for use. 398 μL of the dilutions of human liver microsomes or rat liver microsomes were added to 96-well incubation plates (N=2), respectively, and 2 μL of 0.25 mM working solution was added respectively and nixed.
(§7) Metabolic stability assay: 300 μL of pre-chilled stop solution was added to each well of 96-well deep well plates and placed on ice as stop plates. The 96-well incubation plates and NADPH regeneration system were placed in a 37° C. water bath, shaken at 100 rpm and pre-incubated for 5 min. 80 μL of incubation solution was taken out from each well of the incubation plates, added to the stop plates, mixed well, and replenished with 20 μL of NADPH regeneration system solution. The resulting mixture was used as a 0-min sample. 80 μL of NADPH regeneration system solution was added to each well of the incubation plates to start the reaction and start counting. […] At 10, 30, and 90 minutes of the reaction, respectively, 100 μL of the reaction solutions were taken out, added to the stop plates, and vortexed for 3 minutes to stop the reaction. The stop plates were centrifuged at 5000×g at 4° C. for 10 min. 100 μL of the supernatant was taken out, added to a 96-well plate pre-added with 100 μL of distilled water, mixed well, and analyzed by LC-MS/MS.
(§8) Data analysis: The peak areas of the corresponding compounds and internal standard were detected by LC-MS/MS system, and the ratio of the peak area of the compounds to the internal standard was calculated.

Data set [2] in a line: Metabolic stability evaluation in human liver microsomes. Type of data set: in vitro ADME. To be noted: human liver microsomes 0.5 mg/mL, compound 1 μM; for microsomal CLint at 1 μM / half-life at 1 μM: pH 7.4; for microsomal CLint at 1 μM: read-out: HLM CL; for half-life at 1 μM: read-out: HLM T1/2. As to the method: as §1, §2, §3, §4, §5, §6, §7, §8
For data set [3] the following is noted: at weakly acidic and neutral pH; cited from earlier work.
In data set [4] the test system is HT-29 colorectal cancer cell line with BRAF V600E mutation. Briefly: Cytotoxicity assay (CTG, 72 hours). It is filed as cell-based. To be noted: Homo sapiens, HT-29 cells.
Experimental: The cell viability was detected by trypan blue exclusion method to ensure that the cell viability was greater than 90%. The cells were inoculated in a 96-well plate and cultured overnight under the condition of 37° C. and 5% CO2. The 10-fold drug solutions were prepared by a 3.16-fold serial dilution starting from a maximum concentration of 1 μM, resulting in 9 concentrations. 10 μL of the drug solutions were added to each well of the 96-well plate in triplicate, and the incubation was further continued for 72 hours. An equal volume of CTG solution was added to each well, and the cell plate w as shaked on an orbital shaker for 5 minutes to lyse the cells. The cell plate was placed at room temperature for 20 minutes to stabilize the luminescence signal, and the luminescence values were then read on a SpectraMax multi-label microplate reader (MD, 2104-0010A). The data were analyzed with GraphPad Prism 5.0 software, and fitted using the non-linear S-curve regression to obtain a dose-effect curve, from which IC50 values were calculated accordingly.

`[2H]C([2H])([2H])[C@H](NC(=O)OC)C([2H])([2H])Nc1nccc(-c2cn(C([2H])(C([2H])([2H])[2H])C([2H])([2H])[2H])nc2-c2cc(Cl)cc(NS(C)(=O)=O)c2F)n1` [L-5-S, (S)-methyl (1-((4-(3-(5-chloro-2-fluoro-3-(methylsulfonamido)phenyl)-1-(propan-2-yl-d7)-3-1H-pyrazol-4-yl)pyrimidin-2-yl)amino)propan-2-yl-1,1,3,3,3-d5)carbamate]: in data set [1], the “RLM CL” value came out at 10.22 µL/min/mg and the “RLM T1/2” value was 2.2595 h. Besides, in data set [2], the “HLM CL” value amounted to 5.69 µL/min/mg and the “HLM T1/2” value amounted to 4.0628 h.

On to `COC(=O)N[C@@H](C)CNc1nccc(-c2cn(C(C)C)nc2-c2cc(Cl)cc(NS(C)(=O)=O)c2F)n1` [Encorafenib, (S)-methyl (1-((4-(3-(5-chloro-2-fluoro-3-(methylsulfonamido)phenyl)-1-isopropyl-1H-pyrazol-4-yl)pyrimidin-2-yl)amino)propan-2-yl)carbamate, reference compound], for which the water-solubility entry in data set [3] is recorded as “poor”. Besides, the IC50 in data set [4] was determined as 8.96 nM. In data set [1], the microsomal CLint at 1 μM was 17.4 µL/min/mg and the half-life at 1 μM was determined as 1.33 h. For the same molecule, in data set [2], the microsomal CLint at 1 μM is 17.3 µL/min/mg and the half-life at 1 μM was 1.33 h.

Regarding `[2H]C([2H])([2H])[C@H](NC(=O)OC)C([2H])([2H])Nc1nccc(-c2cn(C(C)C)nc2-c2cc(Cl)cc(NS(C)(=O)=O)c2F)n1` (single isomer, unassigned) [L-4-S], in data set [1], the microsomal CLint at 1 μM worked out at 16.7 µL/min/mg and the half-life at 1 μM was found to be 1.38 h. Moreover, in data set [2], the microsomal CLint at 1 μM worked out at 12.5 µL/min/mg and the half-life at 1 μM came out at 1.85 h.

As for `[2H]C([2H])([2H])C([2H])(n1cc(-c2ccnc(NC[C@H](C)NC(=O)OC)n2)c(-c2cc(Cl)cc(NS(C)(=O)=O)c2F)n1)C([2H])([2H])[2H]` (single isomer, unassigned) [L-1], in data set [1], the microsomal CLint at 1 μM is 11.8 µL/min/mg and the half-life at 1 μM was 1.95 h. In data set [2], the microsomal CLint at 1 μM was 9.47 µL/min/mg and the half-life at 1 μM was found to be 2.44 h.

With `[2H]C([2H])([2H])OC(=O)N[C@@H](C)CNc1nccc(-c2cn(C(C)C)nc2-c2cc(Cl)cc(NS(C)(=O)=O)c2F)n1` (single isomer, unassigned) [L-2], the microsomal CLint at 1 μM in data set [1] was 16.8 µL/min/mg; in data set [2], 9.07 µL/min/mg. In addition, the half-life at 1 μM was 1.38 h in data set [1] and 2.55 h in data set [2].

Consider `[2H]C([2H])([2H])OC(=O)N[C@@H](C)CNc1nccc(-c2cn(C([2H])(C([2H])([2H])[2H])C([2H])([2H])[2H])nc2-c2cc(Cl)cc(NS(C)(=O)=O)c2F)n1` (single isomer, unassigned) [L-3], for which the microsomal CLint at 1 μM in data set [1] came out at 11.3 µL/min/mg; in data set [2], 4.87 µL/min/mg. Moreover, the half-life at 1 μM in data set [1] was found to be 2.04 h; in data set [2], 4.75 h.
